Results taken from patent US20070286867A1, “Combination Therapy” (Fusion Antibodies Limited, priority 2003, published 2007).

How the values were obtained:
Fas receptor = assay: Fas/CD95 cell surface expression in p53 mutant H630 cell line (Example 11); format: cell-based; conditions: 48 hours; 5-FU 5 μM, CPT-11 5 μM, Oxaliplatin 1 μM
Procedure: (§1) Where flow cytometric analysis was employed in Examples 1 to 5, the following protocol was used. Cells were seeded at 1×10^5 per well of a 6-well tissue culture plate. […] DNA content of harvested cells was evaluated after propidium iodide staining of cells using the EPICS XL Flow Cytometer (Coulter, Miami, Fla.). Where flow cytometric analysis was employed in Examples 6 to 12, the following protocol was used. Cells were seeded at 1×10^5 per well of a 6-well tissue culture plate. […] DNA content of harvested cells was evaluated after propidium iodide staining of cells using the EPICS XL Flow Cytometer (Coulter). A FITC-conjugated monoclonal anti-human Fas antibody (DAKO) was used to determine cell surface expression of the receptor. Cells were collected and washed twice in PBS before incubating in the antibody (1/20 dilution) at 4° C. for 30 mins. A non-reactive FITC-conjugated mouse IgG1 antibody was used as a negative control for each sample. Following incubation the cells were washed twice with PBS containing 2% bovine serum albumin and fixed in 0.3 mL 4% paraformaldehyde. Samples were then analysed on the EPICS XL Flow Cytometer (Coulter).

MCF-7 cells [1] = assay: MTT cell viability assay in MCF-7 cells; format: cell-based
Procedure: (§3) Cell Viability Assays. Cell viability was assessed by MTT (3-(4,5-dimethylthiazol-2-yl)-2,5-diphenyltetrazolium bromide, Sigma) assay (12). […] MTT (0.5 mg/ml) was then added to each well and the cells incubated at 37° C. for a further 3 hours. The culture medium was removed and formazan crystals reabsorbed in 200 μL DMSO. Cell viability was determined by reading the absorbance of each well at 570 nm using a 96-well microplate reader (Molecular Devices, Wokingham, England). […] Twenty microlitres (20 μL) MTT (5 mg/ml) was then added to each well and the cells incubated at 37° C. for a further 3 hours. The culture medium was removed and formazan crystals reabsorbed in 200 μL DMSO. Cell viability was determined by reading the absorbance of each well at 570 nm using an ELISA plate reader (Molecular Devices).
(§4) Statistical Analyses. The nature of the interaction between the chemotherapeutic drugs and CH-11 was determined by calculating the R index (RI), which was initially described by Kern and later modified by Romaneli (13, 14). […] Synergism is then defined as an RI of greater than unity. […] To further assess the statistical significance of the interactions, the inventors designed a univariate ANOVA analysis using the SPSS software package. This was an additive model based on the null hypothesis that there was no interaction between the drugs.

MCF-7 cells [2] = assay: Flow cytometry of propidium iodide stained cells, sub-G1/G0 apoptotic fraction, MCF-7; format: cell-based; conditions: 5 μM 5-FU alone 96 hours, or 72 hours followed by 250 ng/ml CH-11 24 hours
Procedure: as §1

Fas [3] = assay: Western blot of Fas expression in M7TS90-E6 cells; format: cell-based; conditions: 10 μM 5-FU, 100 nM RTX or 1 μM MTA
Procedure: (§2) Western Blotting. Western blots were performed as previously described (6). The Fas/CD95, Bc1-2 and BID (Santa Cruz Biotechnology, Santa Cruz, Calif.), caspase 8 (Oncogene Research Products, Darmstadt, Germany), p53 (Santa Cruz Biotechnology), and PARP (Pharmingen, BD Biosciences, Oxford, England) mouse monoclonal antibodies were used in conjunction with a horseradish peroxidase (HRP)-conjugated sheep anti-mouse secondary antibody (Amersham, Little Chalfont, Buckinghamshire, England). FasL rabbit polyclonal antibody (Santa Cruz Biotechnology) was used in conjunction with an HRP-conjugated donkey anti-rabbit secondary antibody (Amersham). TS sheep monoclonal primary antibody (Rockland, Gilbertsville, Pa.) was used in conjunction with an HRP-conjugated donkey anti-sheep secondary antibody (Serotech, Oxford, England). Equal loading was assessed using a β-tubulin mouse monoclonal primary antibody (Sigma).

Fas/CD95 mRNA = assay: Real-time PCR of Fas/CD95 mRNA in HCT116 p53 null cells; format: cell-based, human; conditions: IC60 72hrs doses, 24 and 48 hours
Procedure: Real-time PCR was performed using a DNA Engine Opticon 2 (MJ Research Incorporated). TheDyNAmo SYBR Green qPCR kit (Finnzymes) was used as the fluoresent dye specific for double-stranded DNA. PCR conditions consisted of an initial denaturation step of 95° C. for 10 minutes, followed by 39 cycles of 94° C. for 10 secs, 55° C. for 20 secs and 72° C. for 20 secs, with a final extension of 72° C. for 10 minutes. A melting curve was included at the end of each run to check the specificity of the amplified product. Experiments were performed in triplicate to ensure reproducibility of the technique. On completion of the run the PCR products were run put on a 2% ethidium bromide agarose gel to confirm that their size matched that of the expected amplicon. Primer sequences were as follows: Fas (Forward) […], Fas (Reverse) […], 18S (Forward) […], 18S (Reverse) […].

Fas mRNA = assay: Northern blot of Fas mRNA in MCF-7 cells; format: cell-based; conditions: 48 hours, 5 μM 5-FU
Procedure: Northern blot analysis. Northern blots were performed as described previously using a cDNA probe complementary to the Fas coding region (7). Equal loading was assessed using a P-tubulin cDNA probe.

Fas [4] = assay: Western blot of Fas expression in RKO cells; format: cell-based; conditions: 48 hours post-treatment; MTA data not shown
Procedure: as §2

FasL = assay: Western blot of FasL expression in MCF-7 cells; format: cell-based; conditions: IC60 doses, 72 hours
Procedure: as §2

Fas [5] = assay: Western blot of Fas expression in MCF-7 cells; format: cell-based
Procedure: as §2

procaspase 8, BID, PARP = assay: Western blot of procaspase 8, BID and PARP in MCF-7 cells; format: cell-based; conditions: 5 μM 5-FU or 25 nM RTX 72 hours; CH-11 250 ng/ml 24 hours
Procedure: as §2

[6] = tested on: R175H p53 mutant cell line
Procedure: Plasmids containing the p53 mutations R175H and R248W were kindly provided by Prof. G. Lozano (MD Anderson Cancer Center, Houston). […] Cells were seeded on p90 dishes in Optimem, (Invitrogen) supplemented with 10% FCS, at a density of 1×10^5 cells/dish. Transfection was carried out the following day when the monolayer was approximately 70% confluent. Cells were cotransfected with 1 μg pIRESpuro3 DNA and 20 μg pC53NN p53 mutant DNA using Genejuice Transfection reagent (Novagen, CA, USA) according to the manufacturer's instructions. Stably transfected cells were selected over approximately 14 days in medium containing […] puromycin. […] The DO-1 antibody binds to an N-terminal epitope between amino acid residues 11 and 25.
Cell Viability Assays. Cell viability was assessed by MTT (3-(4,5-dimethylthiazol-2-yl)-2,5-diphenyltetrazolium bromide, Sigma) assay (12). […] Cell viability was determined by reading the absorbance of each well at 570 nm using a 96-well microplate reader (Molecular Devices, Wokingham, England). […]
Statistical Analyses. The nature of the interaction between the chemotherapeutic drugs and CH-11 was determined by calculating the R index (RI), which was initially described by Kern and later modified by Romaneli (13, 14). […]

Fas/CD95 receptor = assay: Flow cytometry of Fas/CD95 cell surface expression, HCT116 p53 wild-type; format: cell-based, human; conditions: 24 hours
Procedure: as §1

M7TS90-E6 cells = assay: Flow cytometry sub-G1/G0 apoptotic fraction, M7TS90-E6; format: cell-based; conditions: 96 hours after drug treatment; RTX 100 nM, MTA 1 μM, 5-FU 10 μM
Procedure: as §1

HCT116p53^−/− cells = assay: MTT cell viability assay in HCT116 p53 null cells; format: cell-based, human; conditions: range of drug concentrations 24 hours, then CH-11 200 ng/ml for 48 hours
Procedure: as §3, §4

Fas [7] = assay: Western blot of Fas expression in H630 cells; format: cell-based; conditions: range of concentrations, 48 hours
Procedure: as §2

HCT116p53^+/+ cells = assay: MTT cell viability assay in HCT116 p53 wild-type cells; format: cell-based, human; conditions: range of drug concentrations 24 hours, then CH-11 200 ng/ml for 48 hours
Procedure: as §3, §4

Fas [8] = assay: Western blot of Fas expression in HCT116 p53 wild-type cells; format: cell-based, human
Procedure: as §2

SMILES: O=c1[nH]cc(F)c(=O)[nH]1 [5-FU, 5-fluorouracil]
- induction of the Fas receptor (Fas receptor): Neither 5-FU nor Oxaliplatin treatment for 48 hours caused significant upregulation
- cytotoxicity at 5 µM (MCF-7 cells [1]; Homo sapiens, MCF7, read-out: decrease in cell viability compared to control): ~60%
- IC60 dose (MCF-7 cells [1]; MCF-7): 5 µM
- induction of apoptosis (sub-G1/G0 fraction) (MCF-7 cells [2]): ~2 fold
- Fas up-regulation (Fas [3]): did not result in Fas up-regulation
- maximum induction of Fas mRNA (Fas/CD95 mRNA): 2 fold
- Fas mRNA expression (Fas mRNA): up-regulated
- Fas expression (Fas [4]): dramatic Fas up-regulation
- FasL expression (FasL): unaffected
- Fas protein up-regulation (Fas [5]; 72 hours, IC60 dose (5 μM 5-FU, 25 nM RTX)): ~12 fold
- Fas expression (Fas [5]; MTA data not shown, CH-11 alone 250 ng/ml, 5-FU alone 5 μM): dramatic up-regulation
- activation of caspase 8 and BID (processing of procaspase 8 and full-length BID), words (procaspase 8, BID, PARP): neither caspase 8, nor its substrate BID were activated
- synergistic cytotoxicity of combination with CH-11 [6]: synergistic cytotoxicity was demontsrated
- induction of Fas/CD95 receptor cell surface expression (Fas/CD95 receptor): significantly induce expression
- induction of apoptosis by drug alone (M7TS90-E6 cells): little apoptosis
- interaction with CH-11 in MTT assay (HCT116p53^−/− cells): only slight interaction
- Fas expression (Fas [7]): not significantly altered
- interaction with CH-11 in MTT assay (HCT116p53^+/+ cells): significant synergy
- induction of Fas/CD95 protein (Fas [8]; 5-FU 5 μM, CPT-11 5 μM, Oxaliplatin 1 μM for 48 hours): significant induction
- up-regulation of Fas expression (Fas [8]; after 48 hours): > 10 fold
